One test concerns MDSCs. Briefly: MDSC suppression assay: inhibition of T cell proliferation by in vitro generated MDSCs. It is filed as cell-based, mouse. As to the method:
(§1) FIG. 2. […] (A) MDSCs were produced in vitro from mouse bone marrow cells using GM-CSF and G-CSF±BRQ (1 μM) or ATRA (10 μM) at the start of the 4-day culture. Cells tested for their ability to inhibit T cell proliferation (1:1 ratio), as in FIG. 5. Fresh BM=Uncultured bone marrow cells. (B) Similar to A, except that uridine (200 μM) was added to rescue the effect of BRQ. (C) Expression of IRF8 (upper) or SLFN4 (lower) was analyzed by qRT-PCR in Lin^− BM cells cultured as in A for 2 days. Data normalized to the vehicle.
In Vitro Development of MDSCs. Unfractionated mouse bone marrow cells were cultured in dishes with recombinant mouse G-CSF and recombinant mouse GM-CSF (40 ng/ml of each cytokine) for 96 hours to produce MDSCs, as described (Marigo et al. Immunity 32:790-802, 2010). After culture, cells were collected and analyzed by flow cytometry for the indicated cell surface markers. Uncultured or fresh bone marrow (BM) cells served as a negative control.
Cultured Cells Develop Potent Immunosuppressive Capacity. Using the methods described for FIG. 4, experiments were then performed to determine whether the cells generated from this BM culture system functionally behaved as MDSCs, based on their ability to inhibit T cell proliferation in vitro. To that end, fresh BM (i.e., no in vitro culture) or cultured BM cells (i.e., MDSCs at two different MDSC-to-T cell ratios of 1:1 or 1:2) were co-mixed in 96-well plates with CellTrace Violet (CTV)—stained syngeneic naïve splenocytes as a source of T cells and stimulated with or without soluble agonistic anti-CD3 monoclonal antibody (mAb) (1 μg/ml) for 72 hours. After co-culture, CTV dye dilution in the gated CD4^+ or CD8^+ T cell fractions within the splenocyte populations was analyzed by flow cytometry to determine the extent of proliferation based on dye dilution. In FIG. 5, top panels show CTV dye dilution, as determined by flow cytometry and depicted as a histogram; bottom panels indicate the percentage of proliferation, based on quantification of the histogram data. […]

For the next test, the system named is IRF8. Briefly: qRT-PCR in Lin- BM cells cultured 2 days. It is filed as cell-based, mouse. As to conditions: bone marrow cells cultured with BRQ, normalized to vehicle. Here is the method: as §1
A general note: Real-time PCR tracks product formation cycle by cycle.

In a further test the test system is SLFN4. Briefly: qRT-PCR in Lin- BM cells cultured 2 days. It is filed as cell-based, mouse. Particulars: bone marrow cells cultured with BRQ, normalized to vehicle. As to the method:
as §1

The subject of another test is AT-3 tumor cells. Kind of test: AT-3 orthotopic mammary tumor model: tumor growth and splenic flow cytometry. It is filed as in vivo, mice. As to the method: Treatment of Tumor-Bearing Mice Alters Surface Phenotype of Myeloid Cells. […] Female BALB/c or C57BL/6 mice were orthotopically implanted with 4T1 or AT-3 mammary tumor cells, respectively, and were monitored 3 times weekly for tumor growth. When tumors became measurable (indicated by the arrow), BRQ was administered daily (10 mg/kg intraperitoneally), and at endpoint the BM cells or spleens were collected for flow cytometric analysis for the expression (i.e., percentage or MFI value) of the indicated cell surface markers (FIGS. 13-15). We extended our in vitro studies with BRQ to […] to determine the impact of BRQ on MDSC maturation. To that end, mice bearing orthotopically implanted mammary tumors were treated with or without BRQ in vivo using a similarly previously reported dose, frequency and schedule (Sykes et al. Cell 167:171-186, 2016). The first tumor model chosen was 4T1, which is an aggressive mammary tumor cell line that induces a robust MDSC response largely comprised of PMN-MDSCs.
Female C57BL/6 mice were orthotopically implanted with AT-3 tumor cells and were monitored 3 times weekly for tumor growth. When tumors became measurable, BRQ was administered daily (10 mg/kg intraperitoneally), and at endpoint the spleens were collected and analyzed by flow cytometry for the indicated cell surface markers. Tumor growth is shown in the upper panel of FIG. 16 while representative flow cytometry data is shown in the lower panel.
A general note: A flow cytometer gives signals particle by particle.

Entries after “also recorded” stand apart in the source; their conditions may differ.

In the case of `Cc1c(-c2ccc(-c3ccccc3F)cc2)nc2ccc(F)cc2c1C(=O)O` [BRQ, 6-Fluoro-2-(2′-fluoro-[1,1′-biphenyl]-4-yl)-3-methylquinoline-4-carboxylic acid], in the test with MDSCs (BRQ 1 μM at start of 4-day culture, MDSC:T cell 1:1), the “ability of in vitro generated MDSCs to inhibit CD4+ or CD8+ T cell proliferation” value was “inhibits MDSC-mediated immune suppression in vitro; also recorded: more effective than ATRA in limiting the formation of immune suppressive cells in vitro; also recorded: significantly reduced the ability of these in vitro-generated MDSCs to inhibit T cell proliferation; also recorded: mitigates MDSC suppressive activity; also recorded: significantly less suppressive to CD4^+ or CD8^+ T cell proliferation compared to cultures containing ATRA”. Further, in the test on MDSCs (BRQ 1 μM plus extracellular uridine 200 μM), the “ability of in vitro generated MDSCs to inhibit T cell proliferation, uridine rescue” value was “exogenously supplied uridine blocked the effect of BRQ; also recorded: the addition of uridine antagonized the effect of BRQ and restored MDSC suppressive activity”. Also, the IRF8 expression entry in the test with IRF8 is “increase in IRF8 expression”. Also, in the test on SLFN4, the SLFN4 expression result is given as “reciprocal decrease in SLFN4 expression”. Moreover, in the test with AT-3 tumor cells (AT-3-bearing mice, spleen), the “Ly6C expression on the granulocytic (PMN-MDSC) subset” value is recorded as “significantly increased the expression of Ly6C”, the “Ly6C or Ly6G expression on the monocytic subset” value is on record as “no significant changes” and the “Ly6G expression on the surface of granulocytes” value is listed as “increased the expression of Ly6G”. In addition, the AT-3 tumor growth result in the test on AT-3 tumor cells (C57BL/6 mice, BRQ 10 mg/kg i.p. daily) was “minimal effects on inhibiting tumor growth”.

These data come from US12594271B2, “Combination therapy for cancer” (Health Research, Inc., priority 2019, dated 2026).
